# Laboratory results from publication PMC11892739, “Site-specific molecular glues for the 14-3-3/Tau pS214 protein–protein interaction via reversible covalent imine tethering” (RSC Medicinal Chemistry, 2025).
# “Also recorded” adds a separate entry of the source.
# Test system: 14-3-3γ/Tau pS214 interaction
# Experiment: Fluorescence anisotropy 14-3-3γ titration with compound and monovalent Tau pS214 peptide
# Format: binding
# Conditions: SF250μM with 14-3-3γ, 250 μM compound
# Method: FA assays in which 14-3-3γ was titrated to a constant concentration of compound (250 μM) in the presence of the distinct monovalent Tau peptide (10 nM) were performed.
# The determined stabilization factors are concentration-dependent (here 250 μM of compound) and might differ based on assay design. […] The app. α-factors of these compounds for both 14-3-3/Tau complexes were determined by 14-3-3γ titrations in the presence of varied concentrations of the particular compound (Fig. 5d and e). Both compounds reached saturation for both 14-3-3γ/Tau complexes enabling accurate determination of the α-factor. The app. α-factors of aldehydes 1 and 18 were plotted for both 14-3-3γ/Tau complexes to investigate phospho-binding site selective cooperativity (Fig. 5f and h). To do so, the stabilization factors at a given compound concentration were plotted against the compound concentration, leading to the determination of the app. α-factors. […]
# chromatography (HisTrap high performance cartridges, Cytiva). Typically two 5 mL columns were used for a 2 L culture in which the lysate was loaded on the column, washed with 10 CV wash buffer (50 mM Hepes, pH 8.0, 300 mM NaCl, 25 mM imidazole, 2 mM βME), and eluted with several fractions (2-4 CV) of elution buffer (50 mM Hepes, pH 8.0, 300 mM NaCl, 250 mM imidazole, 2 mM βME). Fractions containing the 14-3-3 protein were combined and dialyzed into 25 mM HEPES pH 8.0, 200 mM NaCl, 10 mM MgCl2, 2 mM βME, followed by dialysis into 25 mM HEPES, 100 mM NaCl, 10 mM MgCl2, 500 μM TCEP (adjusted to pH 8.0). Dialyzed protein was concentrated to ∼40 mg/mL, analyzed by Q -Tof LC/MS, and aliquots were flash -frozen for storage at −80 °C. […]
# 0.1% (v/v) Tween20, 0.1% (w/v) BSA). Dilution series were made in polystyrene low -volume 384 -well plates (Corning #4514, Black Round Bottom). Measurements were performed directly after plate preparation, using a Tecan SPARK plate reader at room temperature ( λex: 485±20 nm; λem: 535±25 nm; mirror: automatic; flashes: 30; settle time: 1 ms; gain: optimal; Z -position: calculated from well). Wells containing only fluorescein labelled peptide were used to set as G -factor calibrated from these wells. All data were analyzed using GraphPad Prism (10.0.1) and fitted with a four -parameter logistic model (4PL) to determine binding affinities (dissociation constant, KD). All data shown is background corrected for the signal without 14 -3-3ζ and the mean and standard deviation of technical duplicate is plotted, assay performed in a scientific duplicate for hit compounds.
# Fluorescence Anisotropy – 14-3-3 titrations in the presence of compound To characterize the affinity of the Tau peptides for 14-3-3 in the presence of compound, 14-3-3ζ or γ was titrated in a 2-fold dilution series starting at 400 (for the 14-3-3ζ titrations to Tau pS2) or 800 (for the 14-3-3γ titrations to Tau pS214 or pS324) µM. 14-3-3 was added to 10 nM of fluorescein-labeled peptide (Tau pS2, Tau pS214 or Tau pS324) in the presence of 250 µM compound (1% DMSO). The assays were performed in a similar way as described above. Data shown is the average and standard deviation of a technical duplicate, top plateau corrected where needed, assay performed in a scientific duplicate. […]
# The peptide screen was performed in a similar way as the 14-3-3ζ titration in the precence of compound.
# 14-3-3ζ was titrated in a 2-fold dilution series (starting at 400 µM 14-3-3ζ) to 100 nM of fluorescein-labeled peptides and 250 µM compound 18 (1% DMSO) in FA buffer (10 mM HEPES pH 7.4, 150 mM […]
# Data shown is the average of a scientific triplicate. […]
# DSF was performed using 40 µl samples containing 2.5 µM 14 -3-3ζ, 25 µM Tau peptide (Tau pS2, Tau pS214 or Tau pS324), […] (1% DMSO) and 5x ProteoOrange (Lumiprobe, 5000x stock in DMSO) in 10 mM HEPES, 150 mM NaCl, 50 µM TCEP (pH 7.4). The samples were heated from 35 °C to 79°C at a rate of 0.3 °C per 15 s in a C FX96 Touch Real-Time PCR Detection System (Bio -Rad). Fluorescence […]
row,Structure (SMILES),phospho-binding site preference Tau pS214 versus Tau pS324 (in words)
1,O=Cc1ccc(-n2ccnc2-c2ccc(F)cc2)cc1Br [Compound 13],no preference for Tau pS214
2,O=Cc1ccc(-n2ccnc2-c2ccc(I)cc2)cc1Br [Compound 15],significantly greater extent; also recorded: preference for Tau pS214
3,CCc1ccc(-c2nccn2-c2ccc(C=O)c(Br)c2)cc1 [Compound 18],significantly greater extent; also recorded: highest stabilization selectivity for the 14-3-3γ/Tau pS214 complex
4,N#Cc1ccc(-c2nccn2-c2ccc(C=O)c(Br)c2)cc1 [Compound 22],preference for Tau pS214
5,O=Cc1ccc(-n2ccnc2-c2ccc(Cl)cc2)cc1Br [Compound 14],significantly greater extent; also recorded: preference for Tau pS214
6,Cc1cccc(-c2nccn2-c2ccc(C=O)c(Br)c2)c1 [Compound 6],no significant preference
7,O=Cc1ccc(-n2ccnc2-c2ccccc2)cc1Br [Compound 1],did not show a difference in stabilization
8,Cc1ccc(-c2nccn2-c2ccc(C=O)c(Br)c2)cc1 [Compound 11],significantly greater extent
